Results reported in patent US20050272682A1, “SiRNA targeting PI3K signal transduction pathway and siRNA-based therapy” (priority 2004, published 2005).

Legend:
DSS-induced colitis mice [1] = experiment: DSS-induced colitis in mice, intrarectal siRNA; type: in vivo
Description: (§1) 60 male C57/bl6 mice aged 8 weeks and weighed around 20 g were administered with 5% (w/v) dextran sulfate sodium (DSS) in drinking water for 7 days. DSS used was 5000 MW sulfated polysaccharide (Sigma Chemical Co., St. Louis, Mo.). It is believed that DSS has direct cytotoxic effects on epithelial cells, immune cell function interference, and luminal microflora. DSS-induced inflammatory bowel disease (IBD) was characterized by epithelial damage, mucosal inflammatory infiltrates, and luminal ulceration similar to ulcerative colitis (see FIG. 1, panels A and B).
(§2) A validated clinical disease activity index (DAI) (Murano, et al., 2000; Murthy, et al., 1993) ranging from a score of 0 to 4 was calculated by an investigator blinded to the protocol using the following parameters: stool consistency, presence of fecal blood, and changes in body weight (Murano, et al., 2000). The stool consistency was assessed using the following four point scale: 0, normal; 1, soft; 2, very soft but formed; and 3, liquid. The intensity of the hemoccult paper test was scored by the following scale: 0, negative; 1, faintly blue; 2, moderately blue; 3, dark blue; and 4, blood visible.
(§3) Inflammatory bowel disease (IBD) was induced in 2-month-old C57/bl6 mice using a 5% dextran sulfate sodium (DSS) solution in drinking water. siRNA directed to either p85α or Akt1 or siCONTROL was given on days 2, 3 and 4 of DSS exposure. Due to the short half-life of siRNA in vivo, siSTABLE was used which renders siRNA more resistant to degradation resulting in a half-life of 5 days. For each mouse, 5 μg of siRNA in 25 μl of transfection buffer was transferred into a sterile Eppendorf tube. In a separate sterile polystyrene tube 20 μg of DOTAP was mixed with 70 μl transfection buffer and then the siRNA mixture was transferred to the polystyrene tube containing the DOTAP and then incubated at room temperature for 30 min. Around 100 μl of the mixture was administered via the anus, by slow instillation into the lumen of the colon using a 20-gauge catheter and a 1-ml syringe. After treatment, mice were suspended head down for 30 sec. The colonic enema was performed on the second day of DSS exposure and repeated 24 and 48 h later. Cy-3 labeled siRNA were prepared for the treatment and administered as described above; mice were sacrificed at 4 and 24 hours after treatment and spleen, liver, pancreas and colon samples organs were taken and then frozen in liquid N2. Sections (6 μm) were cut with a cryostat microtome, thaw-mounted on a glass slide (cleaned with ethanol) and analyzed by fluorescent light microscopy (excitation λ=570 ηm).
Neutrophil sequestration was measured by MPO activity determination using the O-dianisidine method as previously described (Barone, et al., 1991). Whole tissue protein (100 μg) extract was used to measure the MPO activity. Activity was expressed as the amount of enzyme necessary to generate a change in absorbance of 1.0 per min per mg wet weight of tissue.
Tissue protein (100 μg) was placed in 96-well plates. Expression of IL-1β and IL-6, TNFα, and p65 NF-κB protein in whole tissue lysates was determined using anti-mouse cytokine ELISA kits from Pierce Biotechnology, Inc. (Rockford, Ill.) as previously described (Slogoff, et al., 2004). Cytokine expression of MIP-2 was determined with an anti-mouse MIP-2 ELISA purchased from Assay Designs, Inc. (Ann Arbor, Mich.). Each ELISA was performed according to the manufacturer's instructions.
Excised colons were evaluated for approximate length, for blood content, stool consistency, and general appearance of bowel wall. Histological examination was performed on three samples of the colon from each animal. The samples were fixed in 10% buffered formalin, dehydrated in ethanol, and then embedded in paraffin. Sections (4 μm) were then prepared and stained with hematoxylin and eosin.

PI3K/Akt pathway = experiment: Western blot of colon from mice given DSS and intrarectal siRNA; type: in vivo
Description: as §3
Western immunoblot analyses were performed as described previously (Wang, et al., 2002). Individual colon samples were homogenized using a Polytron power homogenizer in cell lysis buffer at 4° C. for 30 min. Lysates were clarified by centrifugation (8,000 g for 20 min at 4° C.), and sonicated for 30-45 sec on ice. Protein concentrations were determined using the method of Bradford (1976). Total protein (100 μg) was resolved on a 10% polyacrylamide gel and transferred to Immobilon-P […] membranes as described previously (Wang, et al., 2002). Filters were incubated overnight at 4° C. in blocking solution followed by a 1-h incubation with primary antibodies. Filters were washed three times in blocking solution and incubated with horseradish peroxidase-conjugated secondary antibody for 1 h. After three additional washes, the immune complexes were visualized by enhanced chemiluminescence (ECL) from Amersham (Arlington Heights, Ill.).

[2] = system: severe acute pancreatitis mice; experiment: CMDE diet model of severe acute pancreatitis in mice; type: in vivo
Description: Choline and methionine deficient with ethionine (CMDE) was used to generate pancreatitis model in mice. Female Swiss-Webster mice were divided into two groups: control siRNA or p85α siRNA treatment group. Mice were injected with 10 μg control or p85α siRNA 3 days before and 1 day after starting experiment using hydrodynamic tail vein method. Mice were fed CMDE diet for 3 days. Ethionine (250 mg/kg, twice a day) was fed via gavage. After being fed with CMDE diet for 3 days, mice were fed with regular lab food. The mortality for 7 days was assessed in both groups.

KM20 cells = experiment: DNA fragmentation assay (Cell Death Detection ELISA), KM20 cells; type: cell-based, human; details: TRAIL 100 ng/mL
Description: (§4) Cells were transfected with pik3r1, Akt1 or scrambled siRNA. After 48 h, adherent cells were detached by rapid trypsinization, counted in a Hausser chamber and seeded at a density of 2×10^3 cells per well in 96-well flat-bottom microtiter plates and incubated in 250 μl of growth medium for 24 h at 37° C. Media were removed and either new complete media or TRAIL (100 ng/mL) was added in a final volume of 200 μL and allowed to grow for 24 h at 37° C. After treatment, DNA fragmentation was evaluated by examination of cytoplasmic histone-associated DNA fragments (mono- and oligonucleosomes) using a Cell Death Detection ELISA^Plus kit (Roche Molecular Biochemicals) according to the manufacturer's instructions and as previously described (Wang. et al., 2002). The experiments were repeated on at least 3 separate occasions.

DSS-induced colitis mice [3] = experiment: DSS-induced colitis in mice, wortmannin by oral gavage; type: in vivo; details: DSS 5% 7 days, wortmannin 1.5 mg/kg oral gavage daily from day 2; day 7; DSS alone mean DAI 4; scale 0 to 4
Description: as §1
as §2, with “visible. […]” for “visible.”
Histology sections of large intestine were stained with H&E to evaluate degree of inflammatory changes in the mice before and after the wortmannin treatment. Neutrophil sequestration was assessed through MPO assay. […]

KM12C cells = experiment: DNA fragmentation assay (Cell Death Detection ELISA), KM12C cells; type: cell-based, human; details: TRAIL 100 ng/mL
Description: as §4

[4] = DSS, after day 3, values near control levels by day 7
[5] = colon, compared to DSS+control siRNA

Q: For “p85α siRNA: siSTABLE siRNA duplex to Mus musculus p85α mRNA; sense gcagcaaccgaaacaaagcuu (SEQ ID NO:2), antisense gcuuuguuucgguugcugcuu (SEQ ID NO:3) (sense GCAGCAACCGAAACAAAGCUU; antisense GCUUUGUUUCGGUUGCUGCUU; siSTABLE chemically modified siRNA, pattern not given here)”, which “gross changes in the colon associated with DSS treatment (shortening, intraluminal hemorrhage, necrosis)” value (DSS-induced colitis mice [1]; 5 μg siRNA with DOTAP intrarectally on days 2, 3 and 4 of DSS) is on record?
A: Its value is “abrogated”.

Q: What about the “preventing the bowel shortening, mucosal wall thinning and blood in the colon (comparison of the two siRNA)” value (DSS-induced colitis mice [1]; DSS, intrarectal siRNA) of the same molecule?
A: Its value is “more effective than siRNA to Akt1”.

Q: And the “disease activity index (DAI), course” value (DSS-induced colitis mice [1]; [4])?
A: Its value is “stabilized and then improved”.

Q: What about the “weight loss, course” value (DSS-induced colitis mice [1]; [4]) of the same molecule?
A: Its value is “stabilized and then improved”.

Q: And the “cytokine tissue levels (IL-1β, IL-6, MIP-2, TNFα)” value (DSS-induced colitis mice [1]; [5])?
A: The value was “significantly attenuated”.

Q: And the “neutrophil sequestration (MPO activity)” value (DSS-induced colitis mice [1]; [5])?
A: The value was “significantly attenuated”.

Q: And the “p65 NF-κB activity” value (DSS-induced colitis mice [1]; [5])?
A: Its value is “significantly attenuated”.

Q: What about the “leukocyte infiltration and mucosal damage (colonic histology)” value (DSS-induced colitis mice [1]; compared with DSS and control siRNA) of the same molecule?
A: The value was “decreased”.

Q: What about the “Akt expression in colon” value (PI3K/Akt pathway) of the same molecule?
A: Its value is “not altered”.

Q: And the “p110δ expression in colon” value (PI3K/Akt pathway)?
A: Its value is “not altered”.

Q: What about the “p85α expression in colon” value (PI3K/Akt pathway; normal and DSS-treated colon) of the same molecule?
A: The value was “decreased”.

Q: And the “pAkt expression in colon” value (PI3K/Akt pathway; untreated and DSS-treated colon)?
A: The value was “decreased”.

Q: What about the “edema and bleeding in pancreas” value ([2]; 10 μg siRNA by hydrodynamic tail vein 3 days before and 1 day after start) of the same molecule?
A: Its value is “no edema and bleeding”.

Q: What about the “mice died (mortality)” value ([2]; after 7 days) of the same molecule?
A: The value was 30%.

Q: How did the “induction of apoptosis mediated by the combination of TRAIL and pik3r1 or Akt1 siRNA” value (KM20 cells; KM20 cells pretreated with the caspase-3 inhibitor) turn out when Z-DEVD-fmk [reference compound] was run?
A: The value was “completely blocked”.

Q: For `COC[C@H]1OC(=O)c2coc3c2[C@@]1(C)C1=C(C3=O)[C@@H]2CCC(=O)[C@@]2(C)C[C@H]1OC(C)=O` [wortmannin, Wortmannin], which “mean DAI score” value (DSS-induced colitis mice [3]) is on record?
A: The value was 2.

B1: TNF-related apoptosis-inducing ligand (protein, UniProt P50591 1-281, looked up)
Tumor necrosis factor ligand …: MAMMEVQGGPSLGQTCVLIVIFTVLLQSLCVAVTYVYFTNELKQMQDKYSKSGIACFLKEDDSYWDPNDEESMNSPCWQVKWQLRQLVRKMILRTSEETISTVQEKQQNISPLVRERGPQRVAAHITGTRGRSNTLSSPNSKNEKALGRKINSWESSRSGHSFLSNLHLRNGELVIHEKGFYYIYSQTYFRFQEEIKENTKNDKQMVQYIYKYTSYPDPILLMKSARNSCWSKDAEYGLYSIYQGGIFELKENDRIFVSVTNEHLIDMDHEASFFGAFLVG
notes: apoptosis-inducing agent
Q: For B1, which “effect of TRAIL alone on cell growth” value (KM20 cells; KM20 cells) is on record?
A: The value was “no effect”.

Q: And the “effect of TRAIL alone on cell growth” value (KM12C cells)?
A: Its value is “no effect”.
